What was measured:
Assay type in all cases: cell-based
hTLR7 = molecular target: T1, hTLR7 (Homo sapiens, UniProt Q9NYK1); experiment: Human TLR/NLR agonist screening, NF-κB SEAP reporter in HEK293 cells; settings: agonist mode, Control+ = CL307 1 μg/mL
T1 construct: expressed in transfected cells; host or cells: HEK293
T1 sequence (Q9NYK1 27-1049): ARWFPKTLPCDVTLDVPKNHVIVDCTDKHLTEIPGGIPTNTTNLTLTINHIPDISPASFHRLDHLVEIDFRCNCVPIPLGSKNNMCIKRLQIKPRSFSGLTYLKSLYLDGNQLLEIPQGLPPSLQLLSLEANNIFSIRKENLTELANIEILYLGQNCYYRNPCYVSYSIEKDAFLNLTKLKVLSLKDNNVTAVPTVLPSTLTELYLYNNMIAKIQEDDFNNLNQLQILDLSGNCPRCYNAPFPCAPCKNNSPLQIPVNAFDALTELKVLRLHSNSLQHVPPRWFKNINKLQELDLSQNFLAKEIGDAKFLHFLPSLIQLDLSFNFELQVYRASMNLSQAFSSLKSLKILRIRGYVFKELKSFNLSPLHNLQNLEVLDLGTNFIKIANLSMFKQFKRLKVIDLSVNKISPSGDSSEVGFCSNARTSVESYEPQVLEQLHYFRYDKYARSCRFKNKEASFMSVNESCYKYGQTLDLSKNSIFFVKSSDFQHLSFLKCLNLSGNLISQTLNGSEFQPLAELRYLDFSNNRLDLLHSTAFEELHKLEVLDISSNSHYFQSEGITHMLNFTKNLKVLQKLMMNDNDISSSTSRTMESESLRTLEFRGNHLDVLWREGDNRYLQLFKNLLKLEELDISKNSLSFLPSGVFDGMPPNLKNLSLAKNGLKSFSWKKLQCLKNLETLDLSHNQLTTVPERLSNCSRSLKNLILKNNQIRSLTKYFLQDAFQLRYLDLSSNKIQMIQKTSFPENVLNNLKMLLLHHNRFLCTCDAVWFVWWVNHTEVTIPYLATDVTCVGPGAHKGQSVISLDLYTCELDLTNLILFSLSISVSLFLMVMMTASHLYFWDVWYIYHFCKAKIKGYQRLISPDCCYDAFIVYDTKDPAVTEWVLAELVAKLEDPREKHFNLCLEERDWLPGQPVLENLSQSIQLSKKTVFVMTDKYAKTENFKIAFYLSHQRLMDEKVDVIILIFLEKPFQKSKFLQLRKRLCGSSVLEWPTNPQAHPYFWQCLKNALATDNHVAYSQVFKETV
Method: (§1) Toll-Like Receptor (TLR), NOD-Like Receptor (NLR) and C-Type Lectin Receptor (CLR) stimulation were tested by assessing NF-κB activation in HEK293 cells expressing a given TLR, NLR or CLR. The activity of the test articles was tested at one concentration and compared to control ligands. These steps were performed in triplicate.
hTLR7: CL307 at 1 μg/mL Antagonist: 10 ng/mL.
(§2) In a 96-well plate (200 μL total volume) containing the appropriate cells (50,000-75,000 cells/well), 20 μL of the test article or the positive control ligand was added to the wells. For the antagonist assay, the test article was incubated with the cells, at 37° C. with 5% CO2, for 30 minutes prior to the addition of the positive control ligand to the wells. The media added to the wells was designed for the detection of NF-κB induced SEAP expression. After a 16-24 hr incubation the optical density (OD) was read at 650 nm on a Molecular Devices SpectraMax 340PC absorbance detector.
The fold induction (ratio of average induced value to average non-induced value) results were as follows: […]

hDectin-1a = molecular target: T2, hDectin-1a (Homo sapiens, UniProt Q9BXN2); experiment: Human CLR agonist screening, NF-κB SEAP reporter in HEK293 cells; settings: agonist mode, Curdlan 100 μg/mL
T2 construct: expressed in transfected cells; host or cells: HEK293
T2 sequence (Q9BXN2 whole entry): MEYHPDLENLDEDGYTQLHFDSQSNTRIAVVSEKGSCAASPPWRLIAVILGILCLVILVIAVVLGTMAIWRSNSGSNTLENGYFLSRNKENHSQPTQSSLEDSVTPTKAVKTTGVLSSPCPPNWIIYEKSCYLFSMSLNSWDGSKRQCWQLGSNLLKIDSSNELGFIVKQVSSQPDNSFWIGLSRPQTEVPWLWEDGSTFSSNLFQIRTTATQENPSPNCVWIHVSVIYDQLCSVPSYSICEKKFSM
Method: as §1
(§3) hDectin-1a and hDectin-1b: WGP Soluble (0-glucan from S. cerevisiae) at 10 ng/mL Antagonist: 5 ng/mL. Curdlan at 100 μg/mL. Antagonist: 100 μg/mL. Zymosan Depleted (hot alkali treated S. cerevisiae) at 5 μg/mL Antagonist: 3 μg/mL.
as §2
(§4) Fold Induction (Ratio of Average Induced Value to Average Non-Induced Value): […]

hDectin-1b = molecular target: T3, hDectin-1b (Homo sapiens, UniProt Q9BXN2); experiment: as above; settings: agonist mode, Curdlan 100 μg/mL
T3 construct: expressed in transfected cells; host or cells: HEK293
T3 sequence (Q9BXN2 1-201 isoform Q9BXN2-2): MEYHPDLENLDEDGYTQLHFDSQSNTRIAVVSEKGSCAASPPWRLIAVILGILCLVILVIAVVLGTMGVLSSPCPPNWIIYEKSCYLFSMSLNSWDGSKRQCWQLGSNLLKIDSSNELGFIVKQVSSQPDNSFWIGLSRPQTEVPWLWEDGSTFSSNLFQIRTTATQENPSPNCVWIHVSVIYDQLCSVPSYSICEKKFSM
Method: as §1, §3, §2, §4

| Compound | Fold induction (ratio of average induced value to average non-induced value) (hTLR7) | Fold induction (ratio of average induced value to average non-induced value) (hDectin-1a) | Fold induction (ratio of average induced value to average non-induced value) (hDectin-1b) |
| --- | --- | --- | --- |
| CCCCNc1nc(N)c2[nH]c(=O)n(Cc3ccc(C(=O)NCC(=O)NCCCNCCCCNCCCN)cc3)c2n1 [CL307] | 34 |  |  |
| Curdlan |  | 6 | 8 |
